Reference: ChEMBL document CHEMBL2380302, “Synthesis of 3-O-propargylated betulinic acid and its 1,2,3-triazoles as potential apoptotic agents” (Eur J Med Chem, 2013)

Legend:
PC-3 [1] = experiment: Cytotoxicity against human PC3 cells at 30 uM after 48 hrs by SRB assay; type: functional; conditions: PC-3, 48 h, read-out: GI
HEp-2 [2] = experiment: Cytotoxicity against human Hep2 cells at 30 uM after 48 hrs by SRB assay; type: functional; conditions: HEp-2, 48 h, read-out: GI
A549 [3] = experiment: Cytotoxicity against human A549 cells at 10 uM after 48 hrs by SRB assay; type: functional; conditions: A549, 48 h, read-out: GI
HCT-15 [4] = experiment: Cytotoxicity against human HCT15 cells at 10 uM after 48 hrs by SRB assay; type: functional; conditions: HCT-15, 48 h, read-out: GI
PC-3 [5] = experiment: Cytotoxicity against human PC3 cells at 50 uM after 48 hrs by SRB assay; type: functional; conditions: PC-3, 48 h, read-out: GI
THP-1 [6] = experiment: Cytotoxicity against human THP1 cells at 10 uM after 48 hrs by SRB assay; type: functional; conditions: THP-1, 48 h, read-out: GI
DU-145 [7] = experiment: Cytotoxicity against human DU145 cells at 30 uM after 48 hrs by SRB assay; type: functional; conditions: DU-145, 48 h, read-out: GI
DU-145 [8] = experiment: Cytotoxicity against human DU145 cells at 10 uM after 48 hrs by SRB assay; type: functional; conditions: DU-145, 48 h, read-out: GI
HCT-15 [9] = experiment: Cytotoxicity against human HCT15 cells after 48 hrs by SRB assay; type: functional, cell-based; conditions: HCT-15, 48 h
A549 [10] = experiment: Cytotoxicity against human A549 cells after 48 hrs by SRB assay; type: functional, cell-based; conditions: A549, 48 h
SF-295 [11] = experiment: Cytotoxicity against human SF295 cells at 50 uM after 48 hrs by SRB assay; type: functional; conditions: SF-295, 48 h, read-out: GI
HEp-2 [12] = experiment: Cytotoxicity against human Hep2 cells after 48 hrs by SRB assay; type: functional, cell-based; conditions: HEp-2, 48 h
MCF7 [13] = experiment: Cytotoxicity against human MCF7 cells at 10 uM after 48 hrs by SRB assay; type: functional; conditions: MCF7, 48 h, read-out: GI
HCT-15 [14] = experiment: Cytotoxicity against human HCT15 cells at 50 uM after 48 hrs by SRB assay; type: functional; conditions: HCT-15, 48 h, read-out: GI
A549 [15] = experiment: Cytotoxicity against human A549 cells at 30 uM after 48 hrs by SRB assay; type: functional; conditions: A549, 48 h, read-out: GI
THP-1 [16] = experiment: Cytotoxicity against human THP1 cells at 50 uM after 48 hrs by SRB assay; type: functional; conditions: THP-1, 48 h, read-out: GI
A549 [17] = experiment: Cytotoxicity against human A549 cells at 50 uM after 48 hrs by SRB assay; type: functional; conditions: A549, 48 h, read-out: GI
MCF7 [18] = experiment: Cytotoxicity against human MCF7 cells at 30 uM after 48 hrs by SRB assay; type: functional; conditions: MCF7, 48 h, read-out: GI
THP-1 [19] = experiment: Cytotoxicity against human THP1 cells after 48 hrs by SRB assay; type: functional, cell-based; conditions: THP-1, 48 h
DU-145 [20] = experiment: Cytotoxicity against human DU145 cells at 50 uM after 48 hrs by SRB assay; type: functional; conditions: DU-145, 48 h, read-out: GI
SF-295 [21] = experiment: Cytotoxicity against human SF295 cells after 48 hrs by SRB assay; type: functional, cell-based; conditions: SF-295, 48 h
SF-295 [22] = experiment: Cytotoxicity against human SF295 cells at 30 uM after 48 hrs by SRB assay; type: functional; conditions: SF-295, 48 h, read-out: GI
HL-60 [23] = experiment: Cytotoxicity against human HL60 cells at 30 uM after 48 hrs by SRB assay; type: functional; conditions: HL-60, 48 h, read-out: GI
PC-3 [24] = experiment: Cytotoxicity against human PC3 cells at 10 uM after 48 hrs by SRB assay; type: functional; conditions: PC-3, 48 h, read-out: GI
THP-1 [25] = experiment: Cytotoxicity against human THP1 cells at 30 uM after 48 hrs by SRB assay; type: functional; conditions: THP-1, 48 h, read-out: GI
HEp-2 [26] = experiment: Cytotoxicity against human Hep2 cells at 10 uM after 48 hrs by SRB assay; type: functional; conditions: HEp-2, 48 h, read-out: GI
HL-60 [27] = experiment: Cytotoxicity against human HL60 cells at 50 uM after 48 hrs by SRB assay; type: functional; conditions: HL-60, 48 h, read-out: GI
HCT-15 [28] = experiment: Cytotoxicity against human HCT15 cells at 30 uM after 48 hrs by SRB assay; type: functional; conditions: HCT-15, 48 h, read-out: GI
HEp-2 [29] = experiment: Cytotoxicity against human Hep2 cells at 50 uM after 48 hrs by SRB assay; type: functional; conditions: HEp-2, 48 h, read-out: GI
DU-145 [30] = experiment: Cytotoxicity against human DU145 cells after 48 hrs by SRB assay; type: functional, cell-based; conditions: DU-145, 48 h
HL-60 [31] = experiment: Cytotoxicity against human HL60 cells after 48 hrs by SRB assay; type: functional, cell-based; conditions: HL-60, 48 h
MCF7 [32] = experiment: Cytotoxicity against human MCF7 cells at 50 uM after 48 hrs by SRB assay; type: functional; conditions: MCF7, 48 h, read-out: GI
SF-295 [33] = experiment: Cytotoxicity against human SF295 cells at 10 uM after 48 hrs by SRB assay; type: functional; conditions: SF-295, 48 h, read-out: GI
PC-3 [34] = experiment: Cytotoxicity against human PC3 cells after 48 hrs by SRB assay; type: functional, cell-based; conditions: PC-3, 48 h
MCF7 [35] = experiment: Cytotoxicity against human MCF7 cells after 48 hrs by SRB assay; type: functional, cell-based; conditions: MCF7, 48 h
HL-60 [36] = experiment: Cytotoxicity against human HL60 cells at 10 uM after 48 hrs by SRB assay; type: functional; conditions: HL-60, 48 h, read-out: GI

**Q.** For `C=C(C)[C@@H]1CC[C@]2(C(=O)O)CC[C@]3(C)[C@H](CC[C@@H]4[C@@]5(C)CC[C@H](O)C(C)(C)[C@@H]5CC[C@]43C)[C@@H]12` [BETULINIC ACID], which inhibition of growth at 30 µM (PC-3 [1]) is on record?
**A.** Its inhibition of growth at 30 µM is 29%.

**Q.** What about the inhibition of growth at 30 µM (HEp-2 [2]) of the same molecule?
**A.** Its inhibition of growth at 30 µM is 66%.

**Q.** What about the inhibition of growth at 10 µM (A549 [3]) of the same molecule?
**A.** The inhibition of growth at 10 µM was 20%.

**Q.** What about the inhibition of growth at 10 µM (HCT-15 [4]) of the same molecule?
**A.** The inhibition of growth at 10 µM was 45%.

**Q.** And the inhibition of growth at 50 µM (PC-3 [5])?
**A.** The inhibition of growth at 50 µM was 94%.

**Q.** And the inhibition of growth at 10 µM (THP-1 [6])?
**A.** Its inhibition of growth at 10 µM is 30%.

**Q.** And the inhibition of growth at 30 µM (DU-145 [7])?
**A.** Its inhibition of growth at 30 µM is 70%.

**Q.** What about the inhibition of growth at 10 µM (DU-145 [8]) of the same molecule?
**A.** The inhibition of growth at 10 µM was 12%.

**Q.** What about the IC50 (HCT-15 [9]) of the same molecule?
**A.** The IC50 was 12 µM.

**Q.** What about the IC50 (A549 [10]) of the same molecule?
**A.** The IC50 was 31 µM.

**Q.** What about the inhibition of growth at 50 µM (SF-295 [11]) of the same molecule?
**A.** The inhibition of growth at 50 µM was 99%.

**Q.** What about the IC50 (HEp-2 [12]) of the same molecule?
**A.** Its IC50 is 16 µM.

**Q.** What about the inhibition of growth at 10 µM (MCF7 [13]) of the same molecule?
**A.** Its inhibition of growth at 10 µM is 7%.

**Q.** And the inhibition of growth at 50 µM (HCT-15 [14])?
**A.** Its inhibition of growth at 50 µM is 94%.

**Q.** What about the inhibition of growth at 30 µM (A549 [15]) of the same molecule?
**A.** Its inhibition of growth at 30 µM is 48%.

**Q.** What about the inhibition of growth at 50 µM (THP-1 [16]) of the same molecule?
**A.** Its inhibition of growth at 50 µM is 99%.

**Q.** What about the inhibition of growth at 50 µM (A549 [17]) of the same molecule?
**A.** The inhibition of growth at 50 µM was 74%.

**Q.** What about the inhibition of growth at 30 µM (MCF7 [18]) of the same molecule?
**A.** The inhibition of growth at 30 µM was 36%.

**Q.** And the IC50 (THP-1 [19])?
**A.** The IC50 was 20 µM.

**Q.** What about the inhibition of growth at 50 µM (DU-145 [20]) of the same molecule?
**A.** Its inhibition of growth at 50 µM is 84%.

**Q.** And the IC50 (SF-295 [21])?
**A.** Its IC50 is 22 µM.

**Q.** What about the inhibition of growth at 30 µM (SF-295 [22]) of the same molecule?
**A.** The inhibition of growth at 30 µM was 88%.

**Q.** And the inhibition of growth at 30 µM (HL-60 [23])?
**A.** Its inhibition of growth at 30 µM is 73%.

**Q.** What about the inhibition of growth at 10 µM (PC-3 [24]) of the same molecule?
**A.** The inhibition of growth at 10 µM was 8%.

**Q.** What about the inhibition of growth at 30 µM (THP-1 [25]) of the same molecule?
**A.** Its inhibition of growth at 30 µM is 69%.

**Q.** And the inhibition of growth at 10 µM (HEp-2 [26])?
**A.** Its inhibition of growth at 10 µM is 41%.

**Q.** And the inhibition of growth at 50 µM (HL-60 [27])?
**A.** Its inhibition of growth at 50 µM is 98%.

**Q.** And the inhibition of growth at 30 µM (HCT-15 [28])?
**A.** Its inhibition of growth at 30 µM is 80%.

**Q.** And the inhibition of growth at 50 µM (HEp-2 [29])?
**A.** Its inhibition of growth at 50 µM is 78%.

**Q.** And the IC50 (DU-145 [30])?
**A.** The IC50 was 22 µM.

**Q.** What about the IC50 (HL-60 [31]) of the same molecule?
**A.** Its IC50 is 17 µM.

**Q.** What about the inhibition of growth at 50 µM (MCF7 [32]) of the same molecule?
**A.** The inhibition of growth at 50 µM was 80%.

**Q.** And the inhibition of growth at 10 µM (SF-295 [33])?
**A.** Its inhibition of growth at 10 µM is 11%.

**Q.** What about the IC50 (PC-3 [34]) of the same molecule?
**A.** The IC50 was 37 µM.

**Q.** And the IC50 (MCF7 [35])?
**A.** The IC50 was 37 µM.

**Q.** What about the inhibition of growth at 10 µM (HL-60 [36]) of the same molecule?
**A.** Its inhibition of growth at 10 µM is 35%.

**Q.** Which results are given for `C=C(C)[C@@H]1CC[C@]2(C(=O)O)CC[C@]3(C)[C@H](CC[C@@H]4[C@@]5(C)CC[C@H](OCc6cn(-c7ccc(OC)cc7)nn6)C(C)(C)[C@@H]5CC[C@]43C)[C@@H]12`?
**A.** inhibition of growth at 30 µM (PC-3 [1]): 8%; inhibition of growth at 30 µM (HEp-2 [2]): 54%; inhibition of growth at 10 µM (A549 [3]): 38%; inhibition of growth at 10 µM (HCT-15 [4]): 55%; inhibition of growth at 50 µM (PC-3 [5]): 52%; inhibition of growth at 10 µM (THP-1 [6]): 50%; inhibition of growth at 30 µM (DU-145 [7]): 37%; inhibition of growth at 10 µM (DU-145 [8]): 35%; IC50 (HCT-15 [9]): 8 µM; IC50 (A549 [10]): 50 µM; inhibition of growth at 50 µM (SF-295 [11]): 59%; IC50 (HEp-2 [12]): 23 µM; inhibition of growth at 10 µM (MCF7 [13]): 44%; inhibition of growth at 50 µM (HCT-15 [14]): 57%; inhibition of growth at 30 µM (A549 [15]): 40%; inhibition of growth at 50 µM (THP-1 [16]): 97%; inhibition of growth at 50 µM (A549 [17]): 51%; inhibition of growth at 30 µM (MCF7 [18]): 62%; IC50 (THP-1 [19]): 10 µM; inhibition of growth at 50 µM (DU-145 [20]): 53%; IC50 (SF-295 [21]): 44 µM; inhibition of growth at 30 µM (SF-295 [22]): 46%; inhibition of growth at 30 µM (HL-60 [23]): 82%; inhibition of growth at 10 µM (PC-3 [24]): 5%; inhibition of growth at 30 µM (THP-1 [25]): 77%; inhibition of growth at 10 µM (HEp-2 [26]): 41%; inhibition of growth at 50 µM (HL-60 [27]): 99%; inhibition of growth at 30 µM (HCT-15 [28]): 55%; inhibition of growth at 50 µM (HEp-2 [29]): 74%; IC50 (DU-145 [30]): 48 µM; IC50 (HL-60 [31]): 8 µM; inhibition of growth at 50 µM (MCF7 [32]): 93%; inhibition of growth at 10 µM (SF-295 [33]): 20%; IC50 (PC-3 [34]): 49 µM; IC50 (MCF7 [35]): 14 µM; inhibition of growth at 10 µM (HL-60 [36]): 54%
